Test [1] relates to Mus musculus. Kind of test: Compound was tested for analgesic activity in the mouse writhing assay at intragastric dose of 30 mg/Kg. The test is classed as functional. The settings on record: po.
Test [2] in a line: Compound was tested for antagonism of Prostaglandin E2 receptor activity in guinea pig ileum assay based on the dose ratio at 3 uM. The following applies: read-out: pA2 (converted).

In test [1], `O=C(CCCCCl)NNC(=O)N1Cc2ccccc2Oc2ccc(Cl)cc21` [PINADOLINE] had an ED50 of 9.8 mg/kg. The Kb in test [2] was 0.631 µM.
`O=C(CCSCc1ccco1)NNC(=O)N1Cc2ccccc2Oc2ccc(Cl)cc21` had an ED50 in test [1] of 0.9 mg/kg.
In the case of `O=C(CCS(=O)(=O)Cc1ccco1)NNC(=O)N1Cc2ccccc2Oc2ccc(Cl)cc21`, the 50% effective dose (ED50) in test [1] is 5 mg/kg. For the same compound, the Kb in test [2] is 0.251 µM.
Compound `O=C(CC[S+]([O-])Cc1ccco1)NNC(=O)N1Cc2ccccc2Oc2ccc(Cl)cc21` (configuration not stated) yielded an ED50 in test [1] of 5 mg/kg. In addition, the Kb in test [2] is 0.631 µM.
